{
  "source": "patent US20180071268A1",
  "about": "“COMPOSITIONS AND METHODS FOR TREATING MICROBIOTA-RELATED PSYCHOTROPIC CONDITIONS AND DISEASES” (priority 2013, published 2018)",
  "format_in_all_cases": "in vivo, human",
  "key": {"[1]": {"test_system": "OCD", "assay": "Exemplary treatment of OCD in adult with rifaximin (case report)", "experimental": "A married office worker had suffered with OCD since childhood. Having been treated with various pharmacologic agents through life their behaviour patterns were largely controlled except for one behaviour of needing to check gas outlets and powerpoints every night in case their children were hurt or damaged overnight by some unforseen accident. This continued to be a ‘sleep-draining’ issue not controllable by Zoloft, anfranil and other drugs.\nThey were commenced on rifaximin 500 mg capsules twice daily for the first week, then 1 g twice daily thereafter.\nThey remain on long term rifaximin."}, "[2]": {"test_system": "Autism Spectrum Disorder (ASD)", "assay": "Treatment of twin sisters with Autism Spectrum Disorder and OCD component with oral Gentamicin, then added Rifaximin (case report)", "conditions": "oral Gentamicin 80 mg 3 times daily in capsules; within three weeks", "experimental": "Twin sisters who were diagnosed with Autism Spectrum Disorder (ASD) at different levels of reading capability, writing and comprehension in Grade 3 and 4, together with abdominal cramping and alternating hard/soft defecation changes were started on oral Gentamicin 80 mg 3 times daily in capsules. […] After three weeks Rifaximin was added to the mix of drugs at a dose of 500 mg twice daily and the patients were further observed with a combination of Gentamicin and Rifaximin."}, "[3]": {"test_system": "Autistic Spectrum Disorder(ASD)", "assay": "Treatment of child with Autistic Spectrum Disorder with Aztreonam, then added Vancomycin (case report)", "conditions": "Aztreonam 50 mg 3 times daily; about two weeks after starting", "experimental": "A child who was diagnosed with development of Autistic Spectrum Disorder(ASD) with change in bowel habit, withdrawal from ‘society’ and loss of vocabulary/words/vocalizing ability as well as reduced socialisation and eye contact was treated with Aztreonam 50 mg 3 times daily."}, "[4]": {"test_system": "ASD", "assay": "Treatment of person with ASD, chronic constipation and abdominal discomfort with oral Vancomycin (case report)", "experimental": "A patient was brought by their parent for consultation. They had been suffering from ASD since early childhood but also had chronic constipation and abdominal discomfort. The treatment was focussed on the constipation problem as this was the major component of their complaints when interviewed. They were commenced on to 50 mg Vancomycin twice daily for the first week increasing to 250 mg 3 times daily as an oral dose which is not absorbed. […] However they also noticed a change in behaviour of the child. They were much calmer, with their low vocabulary and inability to complain formally, they were no longer screaming and vocalising their pain using repetitive movements. […] This is both with verbal and non-verbal communication."}, "[5]": {"conditions": "oral Vancomycin, at four week interview"}},
  "data": [
    {"molecule": "CO[C@H]1/C=C/O[C@@]2(C)Oc3c(C)c(O)c4c(O)c(c5c(nc6cc(C)ccn65)c4c3C2=O)NC(=O)/C(C)=C\\C=C\\[C@H](C)[C@H](O)[C@@H](C)[C@@H](O)[C@@H](C)[C@H](OC(C)=O)[C@@H]1C", "note": "[rifaximin]", "values": [
      {"measurement": "persistence of the improvement during monitoring", "setting": "[1]; next 3 months of monitoring their behaviour", "result": "almost universal"},
      {"measurement": "OCD behaviour: need to check gas outlets and powerpoints every night", "setting": "[1]; person, rifaximin 500 mg capsules twice daily first week, then 1 g twice daily", "result": "absence of the need to check the gas outlets and powerpoints"},
      {"measurement": "time until absence of the checking behaviour was noticed", "setting": "[1]; person, rifaximin 500 mg twice daily first week, then 1 g twice daily", "result": "≤ 10", "unit": "days"}
    ]},
    {"molecule": "Gentamicin", "values": [
      {"measurement": "episodes of OCD behaviour", "setting": "[2]", "result": "marked reduction in the number of episodes of OCD behaviour"}
    ]},
    {"molecule": "C[C@H]1[C@H](NC(=O)/C(=N\\OC(C)(C)C(=O)O)c2csc(N)n2)C(=O)N1S(=O)(=O)O", "note": "[Aztreonam]", "values": [
      {"measurement": "eye contact", "setting": "[3]", "result": "greater eye contact"},
      {"measurement": "loose motions", "setting": "[3]", "result": "reduction in the loose motions"},
      {"measurement": "socialisation with the other children", "setting": "[3]", "result": "greater socialisation"},
      {"measurement": "word power", "setting": "[3]", "result": "no increase in word power"}
    ]},
    {"molecule": "CN[C@H](CC(C)C)C(=O)N[C@H]1C(=O)N[C@@H](CC(N)=O)C(=O)N[C@H]2C(=O)N[C@H]3C(=O)N[C@H](C(=O)N[C@H](C(=O)O)c4cc(O)cc(O)c4-c4cc3ccc4O)[C@H](O)c3ccc(c(Cl)c3)Oc3cc2cc(c3O[C@@H]2O[C@H](CO)[C@@H](O)[C@H](O)[C@H]2O[C@H]2C[C@](C)(N)[C@H](O)[C@H](C)O2)Oc2ccc(cc2Cl)[C@H]1O", "note": "[Vancomycin]", "values": [
      {"measurement": "abdominal discomfort initially after start of treatment", "setting": "[4]; oral Vancomycin 50 mg twice daily first week increasing to 250 mg 3 times daily, initially", "result": "some increase in abdominal discomfort"},
      {"measurement": "side effects from the medication", "setting": "[4]; oral Vancomycin 750 mg to 1 g, nine months of treatment", "result": "without any undue side effects"},
      {"measurement": "communication, verbal and non-verbal", "setting": "[4]; oral Vancomycin, after four months", "result": "better communication between the parents and the child"},
      {"measurement": "behaviour of the child", "setting": "[4]; [5]", "result": "much calmer"},
      {"measurement": "constipation and pain", "setting": "[4]; [5]", "result": "markedly improved"},
      {"measurement": "repetitive movements", "setting": "[4]; [5]", "result": "came down quite markedly"},
      {"measurement": "pain", "setting": "[4]; oral Vancomycin, within a few days onwards", "result": "progressively disappeared"},
      {"measurement": "bowel function (evacuation frequency)", "setting": "[4]; oral Vancomycin, within a few days, before: once every three to four days", "result": "daily or twice daily and even three times daily evacuation"}
    ]}
  ]
}
